Patent US12337005B2, “Methods of treating thrombosis” (UNIVERSITY OF IOWA RESEARCH FOUNDATION, priority 2020, dated 2025)

Assays:
[1] = tested on: human platelets; assay: Thromboxane (TxB2) assay, human platelets; assay type: cell-based; conditions: convulxin-stimulated human platelets pre-treated with ML265
Protocol: The TxB2 assay was done. Briefly, PRP or washed platelets (2×10^8 platelets/mL) was stimulated with convulxin or thrombin for 3 minutes utilizing an aggregometer, and the reaction was stopped by quickly freezing the sample in a dry ice-methanol bath. Before performing the TXB2 measurement assay, samples were thawed and centrifuged at 15,000 g for 3 minutes. The supernatants were diluted 1:50 with assay buffer and levels of TxB2 (a stable metabolite of TxA2) were determined in triplicate using an immunoassay kit (Abcam Thromboxane B2 enzyme-linked immunosorbent assay kit) according to the manufacturer's instructions.

[2] = tested on: male mice; assay: Tail bleeding assay; assay type: in vivo, mouse; conditions: male mice pretreated with ML265
Protocol: Initially ML265 dissolved in DMSO was mixed with 200 μl of deionized water and administered intra-peritoneally to the at a dose of 25 and 50-mg/Kg body weight. In vivo thrombosis and tail transection assays were performed 10 minutes after administration of ML265 or vehicle infusion by a person who was blinded to the drug and vehicle infusion.
Tail-transection bleeding time was measured. Briefly, mice (approximately 8 weeks of age) were anesthetized with 100-mg/kg ketamine and 10-mg/kg xylazine and placed on a heating pad warmed at 37° C., and a 3 mm segment of the tail was amputated with a sharp scalpel blade. The tail was immediately immersed in saline (at 37° C.), and the time taken for the stream of blood to stop for more than 30 seconds was defined as the bleeding time.

[3] = tested on: integrin αIIbβ3; assay: Integrin αIIbβ3 activation (PAC-1 binding), human platelets; assay type: cell-based; conditions: convulxin or TRAP-induced
[4] = tested on: male obese mice (fed a high-fat diet for 4 months); assay: FeCl3-injury induced carotid artery thrombosis in obese mice; assay type: in vivo, mouse; conditions: 5.0% FeCl3 injury, infused with ML265
From the text: FIGS. 16A-16D. ML265 inhibits platelet aggregation and arterial thrombosis in pre-existing comorbid condition of obesity. Wild-type (C57BL6/J) mice fed a chow and high-fat diet (Cat #TD.06414, Envigo, 60% Kcal from fat) for 4 months. (A) Blood glucose levels (B) Blood glucose levels during the insulin tolerance test. Statistics (A & B): Two-way ANOVA with Tukey's multiple comparisons test (*P<0.05, **P<0.01, ***P<0.001, ****P<0.0001; n=10 mice/group). (C) Platelet rich plasma or washed platelets from obese mice were pretreated with vehicle or ML265 and stimulated with agonists including collagen (1 μg/mL) and thrombin (0.02 U/mL). The results are represented as percent change light transmission after subtracting the blank (platelet poor plasma/Tyrode's buffer). […]
Thrombus formation in the carotid artery after the FeCl3 injury was assessed by intravital microscopy. […] Whatman paper (0.5×1.5 mm) saturated with ferric chloride (5%) solution was applied topically for 1.5 minutes for male and 2 mins for female mice, and thrombus formation in the injured carotid vessel was monitored in real time using a Nikon upright microscope (Plan Fluor 4×/0.2 objective), and thrombus growth overtime was recorded using a high-speed electron-multiplying camera for 40 minutes or until occlusion occurred. […] Videos were evaluated off-line using a Nikon computer-assisted image analysis program.

[5] = tested on: human platelets; assay: P-selectin expression (α-granule secretion), human platelets; assay type: cell-based; conditions: stimulus-activated human platelets pretreated with ML265
Protocol: Platelets (1×10^8 cells in 100 μl) were pre-incubated for 10 min either in presence or absence of ML265 (50 and 100 μM) then stimulated by convulxin or TRAP without stirring. Following this, platelets were labeled with PE-labeled anti-CD61 antibody and FITC conjugated anti-CD62P antibody. The platelet samples were incubated for 30 min in the dark at room temperature and analyzed on the flow cytometer (FACS Calibur, Becton Dickinson). An amorphous region (gate) was drawn to differentiate the platelets from the noise and multi-platelet particles. After compensation for FITC and PE, CD61-positive 10,000 events were collected for each sample.

[6] = tested on: human whole blood; assay: Bioflux flow chamber assay, human whole blood on collagen; assay type: cell-based
Protocol: In vitro thrombosis assays were performed using BioFlux™ 200 (Fluxion Biosciences, USA) microfluidics flow chamber (Nayak et al., 2018). The channels were coated with Type I collagen (100 μg/ml) for one hour at room temperature and then blocked with 0.5% BSA for 30 minutes. Platelets were isolated from citrated whole blood as described above, washed, labeled with the fluorescent dye (calcein AM; 2 μM) and were reconstituted back with PPP and remaining blood containing leukocytes and RBC. The whole blood pretreated with ML265 or vehicle (DMSO) was perfused over the collagen-coated plate at shear stress 1500 s^−1 for 5 minutes. Experiments were performed in triplicates using whole blood from human and mice. The fluorescently labeled platelets/thrombi on the collagen-coated surface were analyzed using ImageJ software from NIH (Bethesda, MD, USA).

[7] = tested on: human platelets; assay: Clot retraction, human platelet-rich plasma; assay type: cell-based; conditions: thrombin stimulation, ML265 50 and 100 μM, dose-dependent
Protocol: To measure thrombin-stimulated fibrin clot retraction PRP was treated with ML265 (50 and 100 μM) or vehicle control (DMSO) for 10 minutes. Tyrode buffer was added to test tubes, along with red blood cells, to allow visualization of the clot. This was followed by the addition of PRP. Clot formation was initiated by adding thrombin (final concentration 0.25 U/ml) to the test tubes. Photographs were taken every 15 minutes and the assay was terminated after 60 minutes at which time the clot in the vehicle-treated samples were seen to have retracted completely. Clot area was analyzed using Image J software from NIH (Bethesda, MD, USA).

In the case of `Cn1c2cc([S+](C)[O-])sc2c2cnn(Cc3cccc(N)c3)c(=O)c21` (stereo not shown) [ML265, 6-[(3-aminophenyl)methyl]-4,6-dihydro-4-methyl-2-(methylsulfinyl)-5H-thieno[2′,3′:4,5]pyrrolo[2,3-d]pyridazine-5-one], the “levels of TxB2 (stable metabolite of TxA2)” value [1] is reported as “reduced”, the “mean time to cessation of bleeding (tail-transection bleeding time) vs vehicle” value [2] is reported as “comparable” and the “activation of αIIbβ3 (PAC-1 binding)” value [3] is reported as “decreased”. The “arterial thrombosis in pre-existing comorbid condition of obesity” value [4] was “inhibited”, the “α-granule secretion (P-selectin exposure)” value [5] was “significant decrease” and the “reduction in the thrombus growth rate vs vehicle control” value ([6]; ML265 150 μM, collagen, 1500 s-1) was roughly 5 fold. For the same compound, the “reduction in percent of the area covered by platelets vs vehicle control” value ([6]; ML265 150 μM, collagen, 1500 s-1, 5 minutes) was roughly 5 fold, the “rate of thrombus growth (slope over time)” value ([6]; ML265 150 μM, vehicle slope 237.3) was 37.92 and the “thrombus formation vs vehicle control” value ([6]; ML265 50 or 100 μM, collagen, 1500 s-1, 5 minutes) was “no significant difference”. For the same compound, the clot retraction [7] was “significantly inhibited”.
